How the values were obtained:
[1] = test system: Class I PI 3-kinases; conditions: read-out: IC50 against each of the various Class I PI 3-kinases; cited from earlier work
[2] = test system: osteoclasts; experiment: Osteoclast function (pit depths on dentine slices); assay type: cell-based, mouse; conditions: PI3K inhibitors 100 nM, 72 hr
Method: To analyze the effect of the present PI3Kδ inhibitor compounds on osteoclasts, mouse bone marrow cells are isolated and differentiated to osteoclasts by treating the cells with Macrophage Colony Stimulating Factor^−1 (mCSF^−1) and Osteoprotegerin Ligand (OPGL) in serum-containing medium (αMEM with 10% heat-inactivated FBS; Sigma) for 3 days. On day four, when the osteoclasts had developed, the medium is removed and cells are harvested. The osteoclasts are plated on dentine slices at 10^5 cells/well in growth medium, i.e., αMEM containing 1% serum and 2% BSA with […] OPGL and 10 ng/mL mCSF^−1. After 3 hr, the medium is changed to 1% serum and 1% BSA, with or without osteopontin (25 μg/mL) and the PI3K inhibitors (100 nM). The medium is changed every 24 hours with fresh osteopontin and the inhibitors. At 72 hr, the medium is removed, and the dentine surfaces are washed with water to remove cell debris and stained with acid hematoxylin. Excess stain is washed and the pit depths are quantitated using confocal microscopy.

[3] = test system: neutrophil; conditions: cited from earlier work
[4] = test system: neutrophil; conditions: cited from earlier work; remark: listed apart in the source

SMILES | IC50 [1] [nM] | osteoclast activity [2] | neutrophil migration [3] | superoxide release [4]
COC[C@H]1OC(=O)c2coc3c2[C@@]1(C)C1=C(C3=O)[C@@H]2CCC(=O)[C@@]2(C)C[C@H]1OC(C)=O [wortmannin] | 1 to 10 | inhibited osteoclast activity | block neutrophil migration | block neutrophil migration and superoxide release
O=c1cc(N2CCOCC2)oc2c(-c3ccccc3)cccc12 [LY294002] | – | inhibited osteoclast activity | block neutrophil migration | block neutrophil migration and superoxide release

From patent USRE44599E1, “Quinazolinones as inhibitors of human phosphatidylinositol 3-kinase delta” (ICOS Corporation, priority 2004, dated 2013)
